# In patent publication US4826856A, “Calcium antagonistic dihydropyridine derivative” (Yason s.r.l., priority 1985, dated 1989):
# Key:
# [1] = Acute toxicity in the rat; details: in vivo
# Excerpt: (§1) The acute toxicity of YS 201 given by intraveous route, similar in the males and in the females in the rat as well as in the mouse, is as follows:
# (§2) The acute toxicity of YS 201 given by oral route, similar in the males and in the females in the rat as well as in the mouse, is as follows: […]
# [2] = Acute toxicity in the mouse; details: in vivo
# Excerpt: as §1, §2
# [3] = test system: normotensive rats; experiment: Effect on blood pressure in normotensive rats (intraduodenal); type: in vivo, rat; details: 15 mg/kg intraduodenal; for HR (heart rate): in beats/min (unit assumed)
# Description: Comparative effect of YS 201 on 3 month old rats and 6 month old SHR-SP
# YS 201 was given by intraduodenal route at 15 mg/kg in normotensive rats.
# [4] = test system: Sprague-Dawley rats; experiment: Ventricular arrhythmias after re-circulation; type: in vivo, rat
# Description: Ventricular arrhythmias after coronary artery ligation in the acute phase or during the period of re-circulation
# Sprague-Dawley rats were subjected to ligation of the left coronary artery according to the method of Clark et al. in J. Pharmacol. Methods 3, 357-368, 1980. The drugs were administered by gastric tube 30 minutes before the ligation. By means of a continuous electrocardiographic recording, the ventricular arrhythmias such as ectopic beats (EB), ventricular tachycardia (VT), ventricular fibrillation (VF) for 30 minutes after ligation, were recorded.
# [5] = test system: volunteers; experiment: Clinical tolerance of oral treatment in volunteers; type: in vivo, human
# Description: The study was performed in 4 male subjects aged 26-43 years.
# Each volunteer received one capsule of 20 mg of YS 201 with a glass of water.
# The same four volunteers, after the first administration were treated with increasing doses of YS 201: 30-40-50 mg.
smiles,measurement,setting,value
"CCOC(=O)C1=C(C)NC(C)=C(C(=O)OCCN2CCCCC2)C1c1cccc([N+](=O)[O-])c1 (stereo not drawn) [YS 201, ethyl-(β-piperidinoethyl)-2,6-dimethyl-4-(3-nitrophenyl)-1,4-dihydropyridine-3,5-dicarboxylate]",LD50,[1]; iv,12.5 mg/kg
same,LD50,[1]; po,402 mg/kg
same,LD50,[2]; iv,12.3 mg/kg
same,LD50,[2]; po,283 mg/kg
same,DBP (diastolic blood pressure),[3]; 1 min,13.0 ± 0.74
same,MBP (mean blood pressure),[3]; 1 min,14.8 ± 0.64
same,SBP (systolic blood pressure),[3]; 1 min,18.4 ± 0.48
same,HR (heart rate),[3]; 1 min,556 ± 9.8
same,DBP (diastolic blood pressure),[3]; 2 min,12.0 ± 0.35
same,MBP (mean blood pressure),[3]; 2 min,13.9 ± 0.28
same,SBP (systolic blood pressure),[3]; 2 min,17.8 ± 0.26
same,HR (heart rate),[3]; 2 min,556 ± 7.5
same,DBP (diastolic blood pressure),[3]; 5 min,10.4 ± 0.33
same,MBP (mean blood pressure),[3]; 5 min,12.7 ± 0.19
same,SBP (systolic blood pressure),[3]; 5 min,17.2 ± 0.26
same,HR (heart rate),[3]; 5 min,564 ± 7.5
same,reduction of diastolic blood pressure (DBP),[3]; 5 min after administration,3.1 KPA
same,DBP (diastolic blood pressure),[3]; 10 min,9.4 ± 0.19
same,MBP (mean blood pressure),[3]; 10 min,11.6 ± 0.15
same,SBP (systolic blood pressure),[3]; 10 min,15.9 ± 0.19
same,HR (heart rate),[3]; 10 min,536 ± 7.5
same,DBP (diastolic blood pressure),[3]; 15 min,9.8 ± 0.34
same,MBP (mean blood pressure),[3]; 15 min,11.7 ± 0.28
same,SBP (systolic blood pressure),[3]; 15 min,15.6 ± 0.29
same,HR (heart rate),[3]; 15 min,524 ± 11.7
same,DBP (diastolic blood pressure),[3]; 30 min,11.3 ± 0.62
same,MBP (mean blood pressure),[3]; 30 min,12.9 ± 0.51
same,SBP (systolic blood pressure),[3]; 30 min,16.0 ± 0.35
same,HR (heart rate),[3]; 30 min,496 ± 22.3
same,DBP (diastolic blood pressure),[3]; 60 min,12.4 ± 0.40
same,MBP (mean blood pressure),[3]; 60 min,14.0 ± 0.35
same,SBP (systolic blood pressure),[3]; 60 min,17.3 ± 0.26
same,HR (heart rate),[3]; 60 min,428 ± 24.2
same,DBP (diastolic blood pressure),[3]; 120 min,13.7 ± 0.87
same,MBP (mean blood pressure),[3]; 120 min,15.3 ± 0.90
same,SBP (systolic blood pressure),[3]; 120 min,18.5 ± 1.06
same,DBP (diastolic blood pressure),[3]; TO (baseline),13.5 ± 0.55
same,MBP (mean blood pressure),[3]; TO (baseline),13.2 ± 0.50
same,SBP (systolic blood pressure),[3]; TO (baseline),18.5 ± 0.47
same,HR (heart rate),[3]; TO (baseline),432 ± 28.7
same,Death rate %,[4]; 7.5 mg/kg p.o.,10%
same,"EBs, mean value of indices + SEM",[4]; 7.5 mg/kg p.o.,42.8 ± 10.08
same,VF %,[4]; 7.5 mg/kg p.o.,60%
same,"VF, mean value of indices + SEM",[4]; 7.5 mg/kg p.o.,1.3 ± 0.52
same,"VT, mean value of indices + SEM",[4]; 7.5 mg/kg p.o.,2.2 ± 1.70
same,Death rate %,[4]; 15 mg/kg p.o.,0%
same,"EBs, mean value of indices + SEM",[4]; 15 mg/kg p.o.,27.20 ± 5.87
same,VF %,[4]; 15 mg/kg p.o.,50%
same,"VF, mean value of indices + SEM",[4]; 15 mg/kg p.o.,0.6 ± 0.33
same,"VT, mean value of indices + SEM",[4]; 15 mg/kg p.o.,1.2 ± 0.39
same,normal respiratory function and other vital parameters,[5]; oral,not affected
same,pathological modification of the arterial pressure,[5]; oral,not observed
same,tolerance of oral treatment,[5]; oral,well tolerated
same,sinus bradycardia,"[5]; oral, two subjects (n. 3, 4)",moderate but definite sinus bradycardia
same,atrio-ventricular conduction time (PR interval),"[5]; subject n. 1, delayed from 0.14 sec.",0.16 s
same,atrio-ventricular conduction time (PR interval),"[5]; subject n. 2, delayed from 0.16 sec.",0.18 s
same,"atrio-ventricular conduction time (PR interval), change","[5]; two subjects (n. 1, 2)",slightly prolonged
